Patent US10588963B2, “Methods for providing adjuvanted virosomes and adjuvanted virosomes obtainable thereby” (Bestewil Holding B.V., priority 2014, dated 2020)

Experiment: Equilibrium density gradient centrifugation of adjuvanted RSV virosomes
Format: physicochemical
Conditions: 10-60% sucrose gradient, spun 66 hrs, after overnight storage at 4° C.
Procedure: To 975 μl of virosomes, containing 850 nmol of phospholipids, 25 μl of DMSO solution containing 153 nmol of 3-D-PHAD was rapidly added while agitating the sample on a vortex mixer. After overnight storage at 4° C., the density of the virosomes was analyzed by equilibrium density gradient centrifugation loaded on 10-60% sucrose gradients, which were spun for 66 hrs in a Sorvall AH 650 rotor at 50 krpm. […] Samples from the gradient were analyzed for sucrose concentration by refractometry, giving a measure of density, phosphate (both lipid and 3-D-PHAD), and protein.
The above adjuvant solutions were added to four tubes with 950 μl of virosomes each, containing 850 nmol of phospholipids, with rapid mixing on a vortex. After overnight storage at 4° C., the density of the virosomes was analyzed by equilibrium density gradient centrifugation on 10-60% sucrose gradients, which were spun for 66 hrs in a Sorvall AH 650 rotor at 120 000 g. Samples from the gradient were analyzed for density, phosphate (both lipid and 3 DPHAD), and protein.

CCCCCCCCCCCCCC(=O)O[C@H](CCCCCCCCCCC)CC(=O)O[C@@H]1[C@@H](NC(=O)C[C@@H](CCCCCCCCCCC)OC(=O)CCCCCCCCCCC)[C@H](OC[C@H]2O[C@H](O)[C@H](NC(=O)C[C@H](O)CCCCCCCCCCC)[C@@H](O)[C@@H]2O)O[C@H](CO)[C@H]1OP(=O)(O)O.N [3-D-PHAD]
density of band in equilibrium density gradient: around 1.12 g/ml
